Experimental data from ChEMBL document CHEMBL1130329, “Coumarin-based inhibitors of HIV integrase” (J Med Chem, 1997).
Several values for one entry are separate records, joined by “and”; a condition that tells them apart may be missing. Equal entries are not always repeated.

Legend:
[1] = molecular target: T1, Human immunodeficiency virus type 1 integrase (Human immunodeficiency virus 1, UniProt Q7ZJM1); test: Integration of DNA by HIV -1 integrase
[2] = Delta Logarithm of Partition Coefficient value was determined.; details: octanol/water
[3] = molecular target: T1, Human immunodeficiency virus type 1 integrase; test: (§1) Inhibitory activity against 3'-processing of DNA by HIV-1 integrase; format: functional
[4] = molecular target: T1, Human immunodeficiency virus type 1 integrase; test: Inhibitory activity against 3'-processing of DNA byHIV-1 integrase; format: functional
[5] = molecular target: T1, Human immunodeficiency virus type 1 integrase; test: as §1

T1 sequence (Q7ZJM1 whole entry): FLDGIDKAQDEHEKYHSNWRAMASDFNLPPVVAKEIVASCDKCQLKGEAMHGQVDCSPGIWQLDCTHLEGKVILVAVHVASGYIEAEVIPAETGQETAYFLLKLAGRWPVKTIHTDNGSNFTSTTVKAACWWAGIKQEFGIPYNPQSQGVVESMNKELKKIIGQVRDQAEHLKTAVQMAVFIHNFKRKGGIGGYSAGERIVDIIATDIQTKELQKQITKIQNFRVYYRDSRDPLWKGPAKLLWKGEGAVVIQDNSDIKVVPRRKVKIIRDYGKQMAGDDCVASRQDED

## O=c1c(C(c2ccc(/C=C/c3ccccc3)cc2)c2c(O)oc3cc(O)ccc3c2=O)c(O)oc2cc(O)ccc12
[1]
  IC50: 1.8 µM

## O=c1c(C(c2ccc3ccccc3c2)c2c(O)oc3ccccc3c2=O)c(O)oc2ccccc12
[2]
  delta Log P: 2.6
[3]
  IC50: 19 µM and 20 µM (2×)
[1]
  IC50: 16 µM and 9 µM

## COc1cc(C(c2c(O)c3ccccc3oc2=O)c2c(O)c3ccccc3oc2=O)ccc1O
[2]
  delta Log P: 1.05
[3]
  IC50: 198 µM and 177 µM and 190 µM
[1]
  IC50: 76 µM and 108 µM

## O=c1c(C(c2ccc(O)cc2)c2c(O)oc3ccccc3c2=O)c(O)oc2ccccc12
[2]
  delta Log P: 1.1
[3]
  IC50: 141 µM and 128 µM and 130 µM
[1]
  IC50: 75 µM and 74 µM

## O=c1c(Cc2ccccc2Cc2c(O)oc3ccccc3c2=O)c(O)oc2ccccc12
[3]
  IC50: 46 µM and 45 µM
[1]
  IC50: 20.5 µM and 33.2 µM

## O=c1c(C(c2ccc(-c3ccccc3)cc2)c2c(O)oc3ccccc3c2=O)c(O)oc2ccccc12
[2]
  delta Log P: 3.33
[3]
  IC50: 14 µM and 16 µM and 15 µM
[1]
  IC50: 13 µM and 28 µM

## O=c1c(C(c2ccccc2)c2c(O)oc3ccccc3c2=O)c(O)oc2ccccc12
[2]
  delta Log P: 1.6
[3]
  IC50: 43.4 µM and 43 µM
[1]
  IC50: 38.8 µM

## O=c1c(Cc2c(O)oc3cc(O)ccc3c2=O)c(O)oc2cc(O)ccc12
[3]
  IC50: 46.3 µM
[1]
  IC50: 44.9 µM

## O=c1c(C(c2ccc(C(c3c(O)oc4cc(O)ccc4c3=O)c3c(O)oc4cc(O)ccc4c3=O)cc2)c2c(O)oc3cc(O)ccc3c2=O)c(O)oc2cc(O)ccc12
[3]
  IC50: 0.37 µM
[1]
  IC50: 0.33 µM

## O=c1c(C(c2ccc([N+](=O)[O-])cc2)c2c(O)oc3ccccc3c2=O)c(O)oc2ccccc12
[2]
  delta Log P: 1.37
[3]
  IC50: 58 µM and 54 µM
[4]
  IC50: 50 µM
[1]
  IC50: 12 µM and 24 µM

## O=c1oc2ccccc2c(O)c1Cc1c(O)c2ccccc2oc1=O [DICUMAROL]
[3]
  IC50: > 300 µM
[1]
  IC50: > 100 µM

## O=c1c(C(c2ccccc2)c2c(O)oc3cc(O)ccc3c2=O)c(O)oc2cc(O)ccc12
[3]
  IC50: 17.2 µM
[1]
  IC50: 22.2 µM

## O=c1c(C(c2ccc(/C=C/c3ccccc3)cc2)c2c(O)oc3ccccc3c2=O)c(O)oc2ccccc12
[2]
  delta Log P: 4.14
[3]
  IC50: 5.5 µM and 9.2 µM and 7 µM
[1]
  IC50: 3.7 µM and 9.5 µM

## O=c1c(C(c2cccc(C(c3c(O)oc4ccccc4c3=O)c3c(O)oc4ccccc4c3=O)c2)c2c(O)oc3ccccc3c2=O)c(O)oc2ccccc12
[3]
  IC50: 3 µM and 2.9 µM
[1]
  IC50: 1.2 µM and 2 µM

## O=c1c(C(c2cc(OCc3ccccc3)cc(OCc3ccccc3)c2)c2c(O)oc3ccccc3c2=O)c(O)oc2ccccc12
[2]
  delta Log P: 5.15
[3]
  IC50: 8 µM and 11 µM and 10 µM
[1]
  IC50: 12 µM and 3.7 µM

## O=c1c(C(c2ccc3c(c2)Cc2ccccc2-3)c2c(O)oc3ccccc3c2=O)c(O)oc2ccccc12
[2]
  delta Log P: 3.4
[3]
  IC50: 10 µM (2×) and 11 µM
[1]
  IC50: 9.5 µM and 7.8 µM

## O=c1c(C(c2ccc(C(c3c(O)oc4ccccc4c3=O)c3c(O)oc4ccccc4c3=O)cc2)c2c(O)oc3ccccc3c2=O)c(O)oc2ccccc12
[2]
  delta Log P: 2.84
[3]
  IC50: 2 µM

## O=c1cc(O)c2ccc(O)cc2o1
[3]
  IC50: 300 µM
[1]
  IC50: 325 µM

## O=c1c(C(c2ccc3ccccc3c2)c2c(O)oc3cc(O)ccc3c2=O)c(O)oc2cc(O)ccc12
[3]
  IC50: 4.2 µM
[1]
  IC50: 3.55 µM

## O=c1c(C(c2cccs2)c2c(O)oc3ccccc3c2=O)c(O)oc2ccccc12
[2]
  delta Log P: 0.86
[3]
  IC50: 100 µM and 105 µM
[4]
  IC50: 110 µM
[1]
  IC50: 148 µM and 149 µM

## CN(C)c1ccc(C(c2c(O)oc3ccccc3c2=O)c2c(O)oc3ccccc3c2=O)cc1
[2]
  delta Log P: 1.88
[3]
  IC50: 100 µM and 190 µM
[4]
  IC50: 88 µM
[1]
  IC50: 50 µM and 88 µM

## O=c1c(Cc2ccc(Cc3c(O)oc4ccccc4c3=O)cc2)c(O)oc2ccccc12
[3]
  IC50: 80.6 µM
[1]
  IC50: 69.2 µM

## O=c1c(C(c2ccc(OCc3ccccc3)cc2)c2c(O)oc3ccccc3c2=O)c(O)oc2ccccc12
[2]
  delta Log P: 3.06
[3]
  IC50: 19 µM and 8.5 µM and 20 µM
[1]
  IC50: 14 µM and 24 µM

## O=C(O)c1ccc(C(c2c(O)oc3ccccc3c2=O)c2c(O)oc3ccccc3c2=O)cc1
[3]
  IC50: 66 µM and 48 µM
[1]
  IC50: 54 µM and 49 µM

## O=c1c(Cc2cccc(Cc3c(O)oc4ccccc4c3=O)c2)c(O)oc2ccccc12
[3]
  IC50: 34 µM and 40 µM
[1]
  IC50: 11.1 µM and 27.5 µM

## O=c1c(C(c2cccnc2)c2c(O)oc3cc(O)ccc3c2=O)c(O)oc2cc(O)ccc12
[5]
  IC50: 89 µM
[3]
  IC50: 62 µM and 116 µM
[1]
  IC50: 25 µM and 97 µM

## O=c1cc(O)c2ccccc2o1 [4-HYDROXYCOUMARINS]
[3]
  IC50: > 100 µM
[1]
  IC50: > 100 µM

## O=c1oc2ccccc2c(O)c1C1c2ccccc2Oc2c1c(=O)oc1ccccc21 (centres undefined)
[3]
  IC50: 121 µM and 127 µM
[1]
  IC50: 122 µM and 163 µM

## 3,3'-(Ferrocenomethylene)bis[4-hydroxycoumarin]
[3]
  IC50: 11 µM and 3.6 µM
[1]
  IC50: 7 µM and 5 µM

## O=c1c(C(c2ccccn2)c2c(O)oc3cc(O)ccc3c2=O)c(O)oc2cc(O)ccc12
[5]
  IC50: 81 µM
[3]
  IC50: 94 µM and 84 µM
[1]
  IC50: 49 µM and 70 µM

## O=c1oc2ccccc2c(O)c1C1c2c(c3ccccc3oc2=O)Oc2c1c(=O)oc1ccccc21
[3]
  IC50: 35.7 µM
[1]
  IC50: 22.5 µM

## O=c1c(C(c2cnc3ccccc3c2)c2c(O)oc3ccccc3c2=O)c(O)oc2ccccc12
[2]
  delta Log P: 1.6
[3]
  IC50: 40 µM and 29 µM and 35 µM
[1]
  IC50: 23 µM and 14 µM

## O=c1c(C(c2ccco2)c2c(O)oc3ccccc3c2=O)c(O)oc2ccccc12
[2]
  delta Log P: 0.45
[3]
  IC50: 75 µM and 34 µM and 54 µM
[1]
  IC50: 133 µM and 122 µM
